Measurements as given in patent US20120316342A1, “THERAPEUTIC AGENT FOR HEPATITIS C” (priority 2010, published 2012).
Entries after “also recorded” stand apart in the source; their conditions may differ.

How the values were obtained:
[1] = system: Subgenomic HCV RNA replicon cells (LucNeo#2); assay: Cytotoxicity (cell survival rate) by tetrazolium staining in luciferase replicon cells; type: cell-based; conditions: for CC50: LucNeo#2 subgenomic replicon cells
Method: A tetrazolium staining solution (10 μl, Seikagaku Corporation, Tokyo) was added to each well in order to examine cytotoxicity (a cell survival rate). After the cells were incubated for 1 hour, the absorbance at the characteristic absorption wavelength (450 nm) was measured with the use of a microplate reader.
(§1) Based on the luciferase assay results, the HCV genomic RNA level was measured, and a percentage (%) relative to the level of RNA of a control group to which the test compound was not administered was determined. Based on the results of tetrazolium staining, cell survival rates (%) of the group to which the test compound had been administered and of a control group were determined. The dose-response relationship of the test compound was analyzed based on the results of quantitative luciferase assays to determine EC50(μM), and the dose-response relationship of the test compound was analyzed based on the results of tetrazolium staining to determine CC50.

[2] = system: Subgenomic HCV RNA replicon cells (LucNeo#2) having a luciferase gene; assay: Anti-HCV activity using replicon cells (luciferase assay); type: cell-based; conditions: luciferase assay; for EC50: LucNeo#2 subgenomic replicon cells, 3 days, read-out: EC50; for anti-HCV activity (in words): Table 2, FIGS. 13 to 15
Method: Subgenomic HCV RNA replicon cells (LucNeo#2, Goto et al., Biochem. Biophys. Res. Commun., 2006, vol. 343, pp. 879-884) having a luciferase gene were suspended in a Dulbecco's modified Eagle medium (DMEM) containing 10% FBS and 1 mg/ml G418 (Sigma). The cells were incubated for 24 hours and then cultured in G418-free fresh media each containing test compounds at various concentrations for 3 days. In order to perform luciferase assays, the cells were washed with PBS and treated with a lysate for 10 minutes with intermittent agitation. A cell lysate (25 μl) was transferred to a white microtiter plate. Luciferase assay reagents (100 μl, Promega, Tokyo) were added to each well and the luciferase activity was measured with a luminometer.
as §1

| SMILES | CC50 [1] [µM] | EC50 [2] [µM] | cytotoxicity (in words) ([1]; Table 2) | anti-HCV activity (in words) [2] |
| --- | --- | --- | --- | --- |
| CCCCn1c(=O)c2ccccc2c2cc(C(O)(C(F)(F)F)C(F)(F)F)c3c(c21)OCO3 [HA-718, 4-butyl-1′-(1′,1′,1′,3′,3′,3′-hexafluoro-2′-hydroxypropan-2′-yl)-[1,3]dioxolo[4,5-c]phenanthridin-5(4H)-one] | 24.2 | 0.29 |  |  |
| CCCCn1c(=O)c2cc(OC)ccc2c2cc(C(O)(C(F)(F)F)C(F)(F)F)c3c(c21)OCO3 [HA-719, 4-butyl-11-(1′,1′,1′,3′,3′,3′-hexafluoro-2′-hydroxypropan-2′-yl)-7-methoxy-[1,3]dioxolo[4,5-c]phenanthridin-5(4H)-one] | 6.4 | 0.05 | high degree of cytotoxicity | very high; also recorded: high degree of anti-HCV activity |
| CCCCn1c(=O)c2ccccc2c2cc(C(O)(C(F)(F)F)C(F)(F)F)c(OC)c(OC)c21 [HA-726, 5-butyl-2-(1′,1′,1′,3′,3′,3′-hexafluoro-2′-hydroxypropan-2′-yl)-3,4-dimethoxy-phenanthridin-6(5H)-one] | 10.4 | 2.6 |  |  |
| CCCCn1c(=O)c2cc(OC)ccc2c2cc(C(O)(C(F)(F)F)C(F)(F)F)c(OC)c(OC)c21 [HA-727, 5-butyl-2-(1′,1′,1′,3′,3′,3′-hexafluoro-2′-hydroxypropan-2′-yl)-3,4,8-trimethoxy-phenanthridin-6(5H)-one] | 6.8 | 1.8 |  |  |
| CCCCn1c(=O)c2cc(OC)ccc2c2cc(C(OCc3ccccc3)(C(F)(F)F)C(F)(F)F)c3c(c21)OCO3 [HA-758, 11-(2′-benzyloxy-1′,1′,1′,3′,3′,3′-hexafluoropropan-2′-yl)-4-butyl-7-methoxy-[1,3]-dioxolo[4,5-c]phenanthridin-5(4H)-one] | > 100 | 1.71 |  | high degree of anti-HCV activity at non-cytotoxic concentrations; also recorded: high degree of anti-HCV activity |
| CCCCn1c(=O)c2cc(OC)c(OC)cc2c2cc(C(O)(C(F)(F)F)C(F)(F)F)ccc21 [KZ25, 5-butyl-2-(1′,1′,1′,3′,3′,3′-hexafluoro-2′-hydroxypropan-2′-yl)-8,9-dimethoxy-phenanthridin-6(5H)-one] | 2.8 | > 2.8 |  |  |
| CCCCn1c(=O)c2cc3c(cc2c2cc(C(O)(C(F)(F)F)C(F)(F)F)ccc21)OCO3 [KZ26, 5-butyl-2-(1′,1′,1′,3′,3′,3′-hexafluoro-2′-hydroxypropan-2′-yl)-[1,3]dioxolo[4,5-j]phenanthridin-6(5H)-one] | > 100 | 2.3 |  | high degree of anti-HCV activity at non-cytotoxic concentrations |
| CCCCn1c(=O)c2c(OC)c(OC)ccc2c2cc(C(O)(C(F)(F)F)C(F)(F)F)ccc21 [KZ27, 5-butyl-2-(1′,1′,1′,3′,3′,3′-hexafluoro-2′-hydroxypropan-2′-yl)-7,8-dimethoxy-phenanthridin-6(5H)-one] | 14.2 | 5.5 |  |  |
| CCCCn1c(=O)c2cc(OC)c(OC)c(OC)c2c2cc(C(O)(C(F)(F)F)C(F)(F)F)ccc21 [KZ28, 5-butyl-2-(1′,1′,1′,3′,3′,3′-hexafluoro-2′-hydroxypropan-2′-yl)-8,9,10-trimethoxy-phenanthridin-6(5H)-one] | 9.4 | 8.3 |  |  |
| CCCCn1c(=O)c2ccccc2c2c(OC)c(C(OC)(C(F)(F)F)C(F)(F)F)cc(OC)c21 [KZ29, 5-butyl-2-(1′,1′,1′,3′,3′,3′-hexafluoro-2′-methoxypropan-2′-yl)-1,4-dimethoxy-phenanthridin-6(5H)-one] | > 100 | 30.4 |  |  |
| CCCCn1c(=O)c2cc(OC)ccc2c2c(OC)c(C(OC)(C(F)(F)F)C(F)(F)F)cc(OC)c21 [KZ30, 5-butyl-2-(1′,1′,1′,3′,3′,3′-hexafluoro-2′-methoxypropan-2′-yl)-1,4,8-trimethoxy-phenanthridin-6(5H)-one] | > 100 | 9.2 |  | high degree of anti-HCV activity at non-cytotoxic concentrations |
| CCCCn1c(=O)c2c(OC)cccc2c2cc(C(O)(C(F)(F)F)C(F)(F)F)ccc21 [KZ31, 5-butyl-2-(1′,1′,1′,3′,3′,3′-hexafluoro-2′-hydroxypropan-2′-yl)-7-methoxy-phenanthridin-6(5H)-one] | 12.6 | 10 |  |  |
| CCCCn1c(=O)c2ccc(OC)cc2c2cc(C(O)(C(F)(F)F)C(F)(F)F)ccc21 [KZ32, 5-butyl-2-(1′,1′,1′,3′,3′,3′-hexafluoro-2′-hydroxypropan-2′-yl)-9-methoxy-phenanthridin-6(5H)-one] | 28.9 | 16.6 |  |  |
| CCCCn1c(=O)c2cccc(OC)c2c2cc(C(O)(C(F)(F)F)C(F)(F)F)ccc21 [KZ33, 5-butyl-2-(1′,1′,1′,3′,3′,3′-hexafluoro-2′-hydroxypropan-2′-yl)-10-methoxy-phenanthridin-6(5H)-one] | 6.9 | 5 |  |  |
| CCCCn1c(=O)c2ccccc2c2c(O)c(C(O)(C(F)(F)F)C(F)(F)F)ccc21 [KZ35, 5-butyl-2-(1′,1′,1′,3′,3′,3′-hexafluoro-2′-hydroxypropan-2′-yl)-1-hydroxy-phenanthridin-6(5H)-one] | 52.3 | 44 |  |  |
| CCCCn1c(=O)c2ccccc2c2cc(C(O)(C(F)(F)F)C(F)(F)F)c(OC)cc21 [KZ36, 5-butyl-2-(1′,1′,1′,3′,3′,3′-hexafluoro-2-hydroxypropan-2′-yl)-3-methoxy-phenanthridin-6(5H)-one] | 5.7 | 2.2 |  |  |
| CCCCn1c(=O)c2ccccc2c2cc(C(OCc3ccccc3)(C(F)(F)F)C(F)(F)F)c(OC)cc21 [KZ37, 2-(2′-benzyloxy-1′,1′,1′,3′,3′,3′-hexafluoropropan-2′-yl)-5-butyl-3-methoxy-phenanthridin-6(5H)-one] | > 100 | 2.6 |  | high degree of anti-HCV activity at non-cytotoxic concentrations; also recorded: high degree of anti-HCV activity |
| CCCCn1c(=O)c2c(OC)cc(OC)cc2c2cc(C(O)(C(F)(F)F)C(F)(F)F)ccc21 [KZ38, 5-butyl-2-(1′,1′,1′,3′,3′,3′-hexafluoro-2′-hydroxypropan-2′-yl)-7,9-dimethoxy-phenanthridin-6(5H)-one] | 8.2 | 2.6 |  |  |
| CCCCn1c(=O)c2c(OC)c(OC)c(OC)cc2c2cc(C(O)(C(F)(F)F)C(F)(F)F)ccc21 [KZ39, 5-butyl-2-(1′,1′,1′,3′,3′,3′-hexafluoro-2′-hydroxypropan-2′-yl)-7,8,9-trimethoxy-phenanthridin-6(5H)-one] | 2 | > 2 |  |  |
